IC50 data for 24 compounds are collected here from patent US20260258032A1, “TYROSINE KINASE 2 INHIBITORS AND USES THEREOF” (BIOGEN MA INC., priority 2022, published 2026).

Counter-ions that a name gives are not always drawn. Some results are limits rather than exact numbers.

The target of test [1] is T1, JH2 domain of human Tyk2 (Homo sapiens, UniProt P29597).
T1 construct: 10×His-tagged TYK2 JH2 domain (amino acid 575-876)
The test is described as follows: JH2 biochemical assay (TR-FRET probe displacement). It is filed as binding. How it is done: The inhibitory potency of compounds of the disclosure against the kinase activity of recombinantly generated JH2 domain of human Tyk2 was evaluated in a plate-based assay using a TR-FRET assay platform. Briefly, 2 nM of recombinant JH2 domain [10×His-tagged TYK2 JH2 domain (amino acid 575-876)] was combined with 2 nM probe ((S)-6-amino-9-(2-carboxy-4-((1-(3-(8-methyl-5-(methylamino)-8H-imidazo[4,5-d]thiazolo[5,4-b]pyridin-2-yl)phenyl)ethyl)carbamoyl)phenyl)-3-iminio-5-sulfo-3H-xanthene-4-sulfonate), 0.1 nM Tb-labeled anti-His antibody, and compounds of disclosure for 60 minutes. Compounds are tested at either […] top concentration, 10 points of 3-fold dilution. The TR-FRET signal […] by compounds and signal was calculated by taking the ratio of fluorescence at 520 nm and 495 nm. The data was normalized and the percent activity versus log concentration of compound was fitted with a 4-parameter logistic model to generate IC50 curves.
A general note: TR-FRET usually uses a lanthanide donor and a delayed reading to cut background.

Test [2] deals with Tyk2 kinase activity on STAT4. As to the kind of experiment: pSTAT4 cell assay (MSD, NK92 cells). The class given is cell-based. The following applies: compounds 1 hr. How it is done:
The inhibitory potency of compounds of the disclosure against the Tyk2 kinase activity on STAT4 was evaluated using an MSD-platform plate-based assay format. NK92 cells natively expressing STAT4 and Tyk2 were serum-starved to reduce background phosphorylation levels, then cells were treated compounds for 1 hr with a 10-point four-fold dilution series starting at 10 μM. Cells were then stimulated with 30 ng/mL IL2 for 15 minutes. Cells were lysed and […] levels were quantitated using an MSD plate-based assay with anti-STAT4 antibodies. The data were normalized and the percent activity versus log concentration of compound were fitted with a 4-parameter logistic model to generate to generate IC50 curves.

T1 sequence (P29597 575-876): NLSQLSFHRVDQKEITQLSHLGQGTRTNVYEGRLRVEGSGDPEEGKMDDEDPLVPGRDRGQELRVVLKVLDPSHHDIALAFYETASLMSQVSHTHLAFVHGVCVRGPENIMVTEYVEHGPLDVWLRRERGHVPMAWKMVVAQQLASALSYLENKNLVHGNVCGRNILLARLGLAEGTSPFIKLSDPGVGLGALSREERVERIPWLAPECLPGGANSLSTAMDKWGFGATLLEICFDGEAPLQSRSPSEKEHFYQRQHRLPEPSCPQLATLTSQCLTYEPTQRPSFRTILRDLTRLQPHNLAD

By IC50 is commonly meant the midpoint of a concentration-inhibition curve. A higher IC50 goes with lower potency. Take `CC(=O)Nc1cc2c(cn1)C1(CC1)CN2c1cc(C)nc(C2CC2)n1` [Example 54, N-(1′-(2-cyclopropyl-6-methylpyrimidin-4-yl)-1′,2′-dihydrospiro[cyclopropane-1,3′-pyrrolo[3,2-c]pyridin]-6′-yl)acetamide]: the half-maximal inhibitory concentration (IC50) is not above 10 nM in test [1] (JH2 biochemical assay) and 100 to 1000 nM in test [2] (stimulated 15 minutes). The corresponding values for `CC(=O)Nc1cc2c(cn1)C1(CC1)CN2c1ccc(F)c(C(C)(F)F)n1` [Example 7, N-(1′-(6-(1,1-difluoroethyl)-5-fluoropyridin-2-yl)-1′,2′-dihydrospiro[cyclopropane-1,3′-pyrrolo[3,2-c]pyridin]-6′-yl)acetamide] are not above 10 nM and 100 to 1000 nM.

For `CC(=O)Nc1cc2c(cn1)C1(CC1)CN2c1cc(C)nc(N2CCC2C)n1` (stereo not shown) [Example 235, N-(1′-(6-methyl-2-(2-methylazetidin-1-yl)pyrimidin-4-yl)-1′,2′-dihydrospiro[cyclopropane-1,3′-pyrrolo[3,2-c]pyridin]-6′-yl)acetamide], the IC50 in test [1] (JH2 biochemical assay) is not above 10 nM; in test [2] (stimulated 15 minutes) it was 100 to 1000 nM. As for `COC(C)CNc1cc(N2CC3(CC3)c3cnc(NC(C)=O)cc32)nc(C(C)(F)F)n1` (stereo not shown) [Example 171, N-(1′-(2-(1,1-difluoroethyl)-6-((2-methoxypropyl)amino)pyrimidin-4-yl)-1′,2′-dihydrospiro[cyclopropane-1,3′-pyrrolo[3,2-c]pyridin]-6′-yl)acetamide trifluoroacetate], the IC50 is not above 10 nM in test [1] (JH2 biochemical assay) and 10 to 100 nM in test [2] (stimulated 15 minutes). The matching figures for `CCC(=O)Nc1cc2c(cn1)C1(CC1)CN2c1ccnc(C(C)(F)F)n1` [Example 89, N-(1′-(2-(1,1-difluoroethyl)pyrimidin-4-yl)-1′,2′-dihydrospiro[cyclopropane-1,3′-pyrrolo[3,2-c]pyridin]-6′-yl)propionamide]: not above 10 nM and 100 to 1000 nM. The corresponding values for `COC(C)c1nc(C)cc(N2CC3(CC3)c3cnc(NC(C)=O)cc32)n1` (stereo not shown) [Example 130, N-(1′-(2-(1-methoxyethyl)-6-methylpyrimidin-4-yl)-1′,2′-dihydrospiro[cyclopropane-1,3′-pyrrolo[3,2-c]pyridin]-6′-yl)acetamide] are not above 10 nM and 100 to 1000 nM. The corresponding values for `COC1CC1Nc1cc(N2CC3(CC3)c3cnc(NC(C)=O)cc32)nc(C(C)(F)F)n1` (stereo not shown) [Example 177, N-(1′-(2-(1,1-difluoroethyl)-6-((2-methoxycyclopropyl)amino)pyrimidin-4-yl)-1′,2′-dihydrospiro[cyclopropane-1,3′-pyrrolo[3,2-c]pyridin]-6′-yl)acetamide] are not above 10 nM and 10 to 100 nM. `CC(=O)Nc1cc2c(cn1)C1(CC1)CN2c1cc(C)nc(C(C)S(C)(=O)=O)n1` (stereo not shown) [Example 97, N-(1′-(6-methyl-2-(1-(methylsulfonyl)ethyl)pyrimidin-4-yl)-1′,2′-dihydrospiro[cyclopropane-1,3′-pyrrolo[3,2-c]pyridin]-6′-yl)acetamide]: the IC50 in test [1] (JH2 biochemical assay) is not above 10 nM; in test [2] (stimulated 15 minutes), 100 to 1000 nM. The matching figures for `CC(=O)Nc1cc2c(cn1)C1(CC1)CN2c1cc(C)cc(OC2COC2)n1` [Example 341, N-(1′-(4-methyl-6-(oxetan-3-yloxy)pyridin-2-yl)-1′,2′-dihydrospiro[cyclopropane-1,3′-pyrrolo[3,2-c]pyridin]-6′-yl)acetamide trifluoroacetate]: not below 1000 nM and not below 1000 nM. With `CC(=O)Nc1cc2c(cn1)C1(CC1)CN2c1cc(C)nc(OC2CC(F)C2)n1` (stereo not shown) [Example 377, N-(1′-(2-(3-fluorocyclobutoxy)-6-methylpyrimidin-4-yl)-1′,2′-dihydrospiro[cyclopropane-1,3′-pyrrolo[3,2-c]pyridin]-6′-yl)acetamide], the IC50 in test [1] (TR-FRET probe displacement, JH2 domain of human Tyk2) was 10 to 100 nM; in test [2] (then stimulated 15 minutes) it was not below 1000 nM.

Turning to `COCCOC1CCN(c2cc(C)cc(N3CC4(CC4)c4cnc(NC(C)=O)cc43)n2)C1` (stereo not shown) [Example 185, N-(1′-(6-(3-(2-methoxyethoxy)pyrrolidin-1-yl)-4-methylpyridin-2-yl)-1′,2′-dihydrospiro[cyclopropane-1,3′-pyrrolo[3,2-c]pyridin]-6′-yl)acetamide], the IC50 in test [1] (JH2 biochemical assay) is 100 to 1000 nM; in test [2] (stimulated 15 minutes), not below 1000 nM. The matching figures for `CCCc1nc(C)cc(N2CC3(CC3)c3cnc(NC(C)=O)cc32)n1` [Example 65, N-(1′-(6-methyl-2-propylpyrimidin-4-yl)-1′,2′-dihydrospiro[cyclopropane-1,3′-pyrrolo[3,2-c]pyridin]-6′-yl)acetamide]: 10 to 100 nM and 100 to 1000 nM.

Consider `CC(=O)Nc1cc2c(cn1)C1(CC1)CN2c1cc(C)nc(N2CC(C(F)F)C2)n1` [Example 222, N-(1′-(2-(3-(difluoromethyl)azetidin-1-yl)-6-methylpyrimidin-4-yl)-1′,2′-dihydrospiro[cyclopropane-1,3′-pyrrolo[3,2-c]pyridin]-6′-yl)acetamide], for which the IC50 in test [1] (JH2 biochemical assay) was 10 to 100 nM; in test [2] (stimulated 15 minutes), not below 1000 nM. The matching figures for `COC1(CNc2cc(N3CC4(CC4)c4cnc(NC(C)=O)cc43)nc(C(C)(F)F)n2)CC1` [Example 161, N-(1′-(2-(1,1-difluoroethyl)-6-(((1-methoxycyclopropyl)methyl)amino)pyrimidin-4-yl)-1′,2′-dihydrospiro[cyclopropane-1,3′-pyrrolo[3,2-c]pyridin]-6′-yl)acetamide trifluoroacetate]: not above 10 nM and 10 to 100 nM.

Consider `CC(=O)Nc1cc2c(cn1)C1(CC1)CN2c1cc(N(C)C)nc(C(C)(F)F)n1` [Example 20, N-(1′-(2-(1,1-difluoroethyl)-6-(dimethylamino)pyrimidin-4-yl)-1′,2′-dihydrospiro[cyclopropane-1,3′-pyrrolo[3,2-c]pyridin]-6′-yl)acetamide], for which the results for the half-inhibitory concentration (IC50) in test [1] (JH2 biochemical assay) and in test [2] (stimulated 15 minutes) were not above 10 nM and 100 to 1000 nM, respectively. The matching figures for `CC(=O)Nc1cc2c(cn1)C1(CC1)CN2c1cc(C)nc(-c2cnn(C(C)C)c2)n1` [Example 249, N-(1′-(2-(1-isopropyl-1H-pyrazol-4-yl)-6-methylpyrimidin-4-yl)-1′,2′-dihydrospiro[cyclopropane-1,3′-pyrrolo[3,2-c]pyridin]-6′-yl)acetamide]: 10 to 100 nM and not below 1000 nM. `CC(=O)Nc1cc2c(cn1)C1(CC1)CN2c1cc(C)nc(-c2ccccc2)n1` [Example 105, N-(1′-(6-methyl-2-phenylpyrimidin-4-yl)-1′,2′-dihydrospiro[cyclopropane-1,3′-pyrrolo[3,2-c]pyridin]-6′-yl)acetamide] displayed an IC50 in test [2] (stimulated 15 minutes) not below 1000 nM.

Take `COCCOc1nc(C)cc(N2CC3(CC3)c3cnc(NC(C)=O)cc32)n1` [Example 360, N-(1′-(2-(2-methoxyethoxy)-6-methylpyrimidin-4-yl)-1′,2′-dihydrospiro[cyclopropane-1,3′-pyrrolo[3,2-c]pyridin]-6′-yl)acetamide trifluoroacetate]: the IC50 in test [2] (stimulated 15 minutes) is not below 1000 nM.

For `CO[C@H]1C[C@H](Oc2cc(N3CC4(CC4)c4cnc(NC(C)=O)cc43)nc(C(C)(F)F)c2)C1` [Example 92, N-(1′-(6-(1,1-difluoroethyl)-4-((1r,3r)-3-methoxycyclobutoxy)pyridin-2-yl)-1′,2′-dihydrospiro[cyclopropane-1,3′-pyrrolo[3,2-c]pyridin]-6′-yl)acetamide], in test [2] (stimulated 15 minutes), the IC50 lay in the range of 10 to 100 nM. `CC(=O)Nc1cc2c(cn1)C1(CC1)CN2c1cc(C)nc(-c2coc(C)n2)n1` [Example 109, N-(1′-(6-methyl-2-(2-methyloxazol-4-yl)pyrimidin-4-yl)-1′,2′-dihydrospiro[cyclopropane-1,3′-pyrrolo[3,2-c]pyridin]-6′-yl)acetamide]: the IC50 in test [2] (stimulated 15 minutes) was 100 to 1000 nM. On the same count and under the same terms, the figure for `CC(=O)Nc1cc2c(cn1)C1(CC1)CN2c1cc(C)nc(-c2cc[nH]n2)n1` [Example 252, N-(1′-(6-methyl-2-(1H-pyrazol-3-yl)pyrimidin-4-yl)-1′,2′-dihydrospiro[cyclopropane-1,3′-pyrrolo[3,2-c]pyridin]-6′-yl)acetamide trifluoroacetate] is 100 to 1000 nM. With `CC(=O)Nc1cc2c(cn1)C1(CC1)CN2c1cc(C)nc(-c2ccccn2)n1` [Example 112, N-(1′-(6-methyl-2-(pyridin-2-yl)pyrimidin-4-yl)-1′,2′-dihydrospiro[cyclopropane-1,3′-pyrrolo[3,2-c]pyridin]-6′-yl)acetamide], in test [2] (stimulated 15 minutes), the IC50 was not below 1000 nM. Same read-out and setting: the figure for `CC(=O)Nc1cc2c(cn1)C1(CC1)CN2c1cc(C(C)C#N)nc(C(C)(F)F)n1` (stereo not shown) [Example 302, N-(1′-(6-(1-cyanoethyl)-2-(1,1-difluoroethyl)pyrimidin-4-yl)-1′,2′-dihydrospiro[cyclopropane-1,3′-pyrrolo[3,2-c]pyridin]-6′-yl)acetamide] is 100 to 1000 nM. Same read-out and setting: then `CC(=O)Nc1cc2c(cn1)C1(CC1)CN2c1cc(C)nc(OC2(C)COC2)n1` [Example 365, N-(1′-(6-methyl-2-((3-methyloxetan-3-yl)oxy)pyrimidin-4-yl)-1′,2′-dihydrospiro[cyclopropane-1,3′-pyrrolo[3,2-c]pyridin]-6′-yl)acetamide], with 100 to 1000 nM.
